Values after ≈ are worked out from the molar mass of the structure shown. Values joined by “and” are separate entries in the source; they are usually repeats but may differ in a detail not shown here. Identical values can stand only once. Like-named read-outs stand apart in the source and are kept apart here.
Columns and labels:
M. tuberculosis = tested on: M. tuberculosis; parameters: method as in PMID 19299584, PMID 24500695; conditions: antimycobacterial activity; cited from earlier work
in vitro [1] = conditions: human
Vero cells = test: Cytotoxicity assay in Vero cells (MTT); type: cell-based; conditions: Chlorocebus sabaeus, 48 h, read-out: IC50 (Vero)
Mt-DprE1 = Mt-DprE1 (Mycobacterium tuberculosis, UniProt P9WJF1); type: biochemical, M. tuberculosis
in vitro [2] = conditions: human, hepatocytes
hERG K+ channel = hERG K+ channel (Homo sapiens, UniProt Q12809); test: Inhibition of the hERG K+ channel, electrophysiology
M. tuberculosis H37Rv [3] = test: MIC against replicating M. tuberculosis H37Rv, microplate Alamar blue assay (MABA); type: cell-based; conditions: Mycobacterium tuberculosis, H37RV
in vitro [4] = conditions: male, mouse, hepatocytes
[5] = Hepatocyte stability assay, mouse; conditions: male, mouse hepatocytes
[6] = Pharmacokinetic studies in Balb/c mice; conditions: for AUC(0-inf) at 24 h / AUC(0-t) at 24 h / Cmax at 24 h / MRT inf at 24 h / clearance at 24 h / half-life at 24 h / Tmax at 24 h / bioavailability at 24 h: male, Balb/c, mouse, in vivo
[7] = Cytotoxicity assay in HepG2 cells (MTT); conditions: human
M. tuberculosis H37Rv [8] = test: In vivo efficacy in acute TB infection model in Balb/c mice; conditions: for log10 CFU/lung: oral, three weeks, INH 25 mg/kg; for Δlog10 CFU: in vivo
[9] = tested on: M. tuberculosis (H37Rv) in infected mouse J774A.1 macrophages; type: cell-based
[10] = Hepatocyte stability assay, human; conditions: human hepatocytes
[11] = against M. tuberculosis H37Rv, Tables 1-3, read-out: MIC
[12] = supplementary CSV, same values as Tables 1-3, read-out: Minimal inhibit concentration

Chain of Mt-DprE1 (P9WJF1 whole entry, looked up): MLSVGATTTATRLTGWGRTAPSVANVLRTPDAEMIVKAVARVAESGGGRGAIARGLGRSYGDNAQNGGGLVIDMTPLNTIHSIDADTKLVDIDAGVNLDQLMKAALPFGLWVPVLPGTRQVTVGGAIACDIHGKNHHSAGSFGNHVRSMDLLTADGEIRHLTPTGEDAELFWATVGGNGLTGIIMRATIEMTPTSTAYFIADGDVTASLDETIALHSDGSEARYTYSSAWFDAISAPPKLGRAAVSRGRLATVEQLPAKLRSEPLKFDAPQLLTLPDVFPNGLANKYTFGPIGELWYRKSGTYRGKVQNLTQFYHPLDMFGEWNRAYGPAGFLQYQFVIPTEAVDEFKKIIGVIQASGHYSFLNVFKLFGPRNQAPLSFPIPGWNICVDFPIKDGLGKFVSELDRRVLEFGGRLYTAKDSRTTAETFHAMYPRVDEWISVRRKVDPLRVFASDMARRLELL
Chain of hERG K+ channel (Q12809 whole entry): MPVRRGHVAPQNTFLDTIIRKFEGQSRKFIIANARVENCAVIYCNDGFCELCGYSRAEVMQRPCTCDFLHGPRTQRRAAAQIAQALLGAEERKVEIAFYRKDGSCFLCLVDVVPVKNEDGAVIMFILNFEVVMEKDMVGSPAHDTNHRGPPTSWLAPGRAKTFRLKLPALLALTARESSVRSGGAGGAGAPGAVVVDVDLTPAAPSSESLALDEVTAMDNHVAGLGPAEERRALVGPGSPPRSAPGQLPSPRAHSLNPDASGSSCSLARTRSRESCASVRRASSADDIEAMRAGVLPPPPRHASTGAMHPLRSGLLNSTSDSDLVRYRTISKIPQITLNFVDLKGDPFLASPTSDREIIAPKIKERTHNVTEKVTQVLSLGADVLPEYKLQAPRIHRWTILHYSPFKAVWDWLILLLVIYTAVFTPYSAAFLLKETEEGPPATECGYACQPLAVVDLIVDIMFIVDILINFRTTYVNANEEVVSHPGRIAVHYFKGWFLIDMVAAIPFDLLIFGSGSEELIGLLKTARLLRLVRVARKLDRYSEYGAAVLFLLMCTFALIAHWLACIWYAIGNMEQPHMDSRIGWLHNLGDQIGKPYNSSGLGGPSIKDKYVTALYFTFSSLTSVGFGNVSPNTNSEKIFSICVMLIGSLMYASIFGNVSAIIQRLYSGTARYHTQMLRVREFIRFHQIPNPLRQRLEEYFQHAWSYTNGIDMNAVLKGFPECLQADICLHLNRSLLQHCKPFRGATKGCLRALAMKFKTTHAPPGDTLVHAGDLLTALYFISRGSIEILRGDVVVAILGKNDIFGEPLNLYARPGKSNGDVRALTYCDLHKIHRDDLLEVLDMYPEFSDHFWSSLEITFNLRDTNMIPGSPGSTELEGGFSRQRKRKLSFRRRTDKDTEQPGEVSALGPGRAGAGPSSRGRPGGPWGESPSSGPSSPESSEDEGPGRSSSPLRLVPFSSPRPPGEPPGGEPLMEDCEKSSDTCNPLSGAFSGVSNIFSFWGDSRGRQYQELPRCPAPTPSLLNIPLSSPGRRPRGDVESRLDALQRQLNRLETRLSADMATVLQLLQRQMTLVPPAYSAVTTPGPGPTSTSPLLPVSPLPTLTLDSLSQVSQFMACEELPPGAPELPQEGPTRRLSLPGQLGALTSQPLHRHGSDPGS

| SMILES | MICs (M. tuberculosis) | IC50 DprE1 (Mt-DprE1) | IC50 (hERG K+ channel) | MIC (M. tuberculosis H37Rv [3]; [11]) | MIC (M. tuberculosis H37Rv [3]; [12]) | MIC (M. tuberculosis H37Rv [3]; Table 4, read-out: MIC H37Rv) | half-life at 1 µM [5] | AUC(0-inf) at 24 h ([6]; iv, 5 mg/kg) | AUC(0-t) at 24 h ([6]; iv, 5 mg/kg) | Cmax at 24 h ([6]; iv, 5 mg/kg) | MRT inf at 24 h ([6]; iv, 5 mg/kg) | clearance at 24 h ([6]; iv, 5 mg/kg) | half-life at 24 h ([6]; iv, 5 mg/kg) | AUC(0-inf) at 24 h ([6]; po, 50 mg/kg) | AUC(0-t) at 24 h ([6]; po, 50 mg/kg) | Cmax at 24 h ([6]; po, 50 mg/kg) | MRT inf at 24 h ([6]; po, 50 mg/kg) | Tmax at 24 h ([6]; po, 50 mg/kg) | bioavailability at 24 h ([6]; po, 50 mg/kg) | half-life at 24 h ([6]; po, 50 mg/kg) | also measured |
| --- | --- | --- | --- | --- | --- | --- | --- | --- | --- | --- | --- | --- | --- | --- | --- | --- | --- | --- | --- | --- | --- |
| C[C@H]1COC2(CCN(c3nc(=O)c4cc(C(F)(F)F)cc([N+](=O)[O-])c4s3)CC2)O1 [BTZ043] | < 0.016 µg/mL | – | – | – | – | – | – | – | – | – | – | – | – | – | – | – | – | – | – | – | – |
| CCOC(=O)NC(=O)c1ccsc1NC(=O)c1ccc(C(=O)N2CCCCC2)s1 [Compound 24j, Ethyl (2-(5-(Piperidine-1-carbonyl)thiophene-2-carboxamido)thiophene-3-carbonyl)carbamate] | – | 0.3 ± 0.1 µg/mL (≈ 0.689 µM) | 28.3 µM | 0.14 µg/mL (≈ 0.321 µM) | 0.14 µg/mL (≈ 0.321 µM) | 0.059 µg/mL (≈ 0.135 µM) | – | – | – | – | – | – | – | – | – | – | – | – | – | – | IC50 (in vitro [1]): > 64 µg/mL; melting point: 175 to 176 °C; IC50 (Vero cells; Vero): > 64 µg/mL; half-life at 1 µM (in vitro [2]): 72.5 min; remaining at 0.5 h, 1 µM (in vitro [2]): 75.1%; half-life at 1 µM (in vitro [4]): 19.3 min; remaining at 0.5 h, 1 µM (in vitro [4]): 34% |
| COC(=O)NC(=O)c1ccsc1NC(=O)c1ccc(C(=O)N2CCCCC2)cc1 [Compound 25a, Methyl (2-(4-(Piperidine-1-carbonyl)benzamido)thiophene-3-carbonyl)carbamate] | – | 0.9 ± 0.2 µg/mL (≈ 2.17 µM) | 22.6 µM | 0.19 µg/mL (≈ 0.457 µM) | 0.19 µg/mL (≈ 0.457 µM) | – | 27.1 min | 833 ng·h/mL | 830 ng·h/mL | 4560 ng/mL | 12 min | 101 mL/min/kg | 15.6 min | 657 ng·h/mL | 651 ng·h/mL | 486 ng/mL | 66 min | 34.8 min | 7.9% | 51 min | remaining at 0.5 h, 1 µM [5]: 46.5%; IC50 (Vero cells; Vero cells): > 64 µg/mL; IC50 at 48 h [7]: > 64 µg/mL; log10 CFU/lung (M. tuberculosis H37Rv [8]; first column (batch with 25a; untreated 6.44), 25a 100 mg/kg): 4.42 ± 0.45 log10 CFU; Δlog10 CFU (M. tuberculosis H37Rv [8]): 2.02 log10 CFU; log10 CFU/macrophages [9]: 4.77 ± 0.10 log10 CFU and 5.06 ± 0.03 log10 CFU; Δlog10 CFU [9]: 0.75 log10 CFU and 0.46 log10 CFU; half-life at 1 µM [10]: 20.3 min; remaining at 0.5 h, 1 µM [10]: 35.9% |
| O=c1nc(N2CCN(CC3CCCCC3)CC2)sc2c([N+](=O)[O-])cc(C(F)(F)F)cc12 [PBTZ169] | < 0.016 µg/mL | – | – | – | – | 0.0001 µg/mL (≈ 0.000219 µM) | – | – | – | – | – | – | – | – | – | – | – | – | – | – | – |
| CCOC(=O)NC(=O)c1ccsc1NC(=O)c1nc2ccccc2s1 [TCA1, reference compound] | – | 0.1 ± 0.01 µg/mL (≈ 0.266 µM) | 18.3 µM | 0.48 µg/mL (≈ 1.28 µM) | – | 0.47 µg/mL (≈ 1.25 µM) | 85.3 min | 7910 ng·h/mL | 7910 ng·h/mL | 14300 ng/mL | 23.4 min | 10.6 mL/min/kg | 28.2 min | 33700 ng·h/mL | 33700 ng·h/mL | 10600 ng/mL | 172 min | 60 min | 42.6% | 131 min | remaining at 0.5 h [5]: 74.8%; enhancement of oral bioavailability relative to 25a ([6]; Balb/c mice): 5 fold; IC50 (Vero cells; Vero cells): 31.8 µg/mL (≈ 84.6 µM); IC50 at 48 h [7]: 46.1 µg/mL (≈ 123 µM); Δlog10 CFU (M. tuberculosis H37Rv [8]): 2.86 log10 CFU; log10 CFU/lung (M. tuberculosis H37Rv [8]; second column (another batch, with TCA1; untreated 7.10), TCA1 100 mg/kg): 4.24 ± 0.25 log10 CFU; half-life at 1 µM [10]: 5.97 min; remaining at 0.5 h, 1 µM [10]: 3.1% |
